Experimental findings from patent publication US9206191B2, “Indazoles for the treatment and prophylaxis of respiratory syncytial virus infection” (Hoffmann-La Roche Inc., priority 2012, dated 2015) are described below.

The EC50 is the concentration that produces a half-maximal response. High values mean lower potency in that assay, low ones higher potency in that assay.

This experiment deals with RSV Long strain. Nature of the experiment: Viral Cytopathic Effect (CPE) Assay. The class given is cell-based. Conditions: human respiratory syncytial virus, 144 h, cell viability after 6 days, Cell Counting kit-8.
`CS(=O)(=O)c1nn(Cc2nc3cc(Cl)cc(F)c3n2CCC(F)(F)F)c2cnccc12` [Example 5-1, 1-{[5-Chloro-7-fluoro-1-(3,3,3-trifluoropropyl)-1H-benzimidazol-2-yl]methyl}-3-(methylsulfonyl)-1H-pyrazolo[3,4-c]pyridine] showed an EC50 of 17 nM. The compound `CS(=O)(=O)c1nn(Cc2nc3cc(Cl)ccc3n2CCC(O)C(F)F)c2cnccc12` (centres unmarked) [Example 2-44, 4-(5-chloro-2-{[3-(methylsulfonyl)-1H-pyrazolo[3,4-c]pyridin-1-yl]methyl}-1H-benzimidazol-1-yl)-1,1-difluorobutan-2-ol] yielded an EC50 of 3.3 nM. Next, `CC(C)(O)[C@H]1C[C@H](n2c(Cn3nc(S(C)(=O)=O)c4ccncc43)nc3cc(Cl)ccc32)C1` [Example 2-39, 2-[trans-3-(5-chloro-2-{[3-(methylsulfonyl)-1H-pyrazolo[3,4-c]pyridin-1-yl]methyl}-1H-benzimidazol-1-yl)cyclobutyl]propan-2-ol]: 2 nM; `CCC(=O)N1CC[C@@H](n2c(Cn3nc(S(C)(=O)=O)c4ccccc43)nc3cc(Cl)ccc32)C1` [Example 6-3, 1-[(3R)-3-(5-Chloro-2-{[3-(methylsulfonyl)-1H-indazol-1-yl]methyl}-1H-benzimidazol-1-yl)pyrrolidin-1-yl]propan-1-one]: 6.07 nM. In the case of `CS(=O)(=O)c1nn(Cc2nc3cc(Cl)ccc3n2CCCCO)c2cnccc12` [Example 2-30, 4-(5-Chloro-2-{[3-(methylsulfonyl)-1H-pyrazolo[3,4-c]pyridin-1-yl]methyl}-1H-benzimidazol-1-yl)butan-1-ol], the midpoint of the response, the EC50, lay at 4.81 nM. In turn, `C[C@@]1(O)CC[C@H](n2c(Cn3nc(S(C)(=O)=O)c4ccncc43)nc3cc(Cl)ccc32)C1` (relative stereo) [Example 2-43, cis-3-(5-chloro-2-{[3-(methylsulfonyl)-1H-pyrazolo[3,4-c]pyridin-1-yl]methyl}-1H-benzimidazol-1-yl)-1-methylcyclopentanol] showed an EC50 of 17.9 nM. Compound `CS(=O)(=O)c1nn(Cc2nc3cc(Cl)ccc3n2C2CCOCC2)c2cnccc12` [Example 2-7, 1-{[5-Chloro-1-(tetrahydro-2H-pyran-4-yl)-1H-benzimidazol-2-yl]methyl}-3-(methylsulfonyl)-1H-pyrazolo[3,4-c]pyridine] displayed an EC50 of 7.72 nM. `CS(=O)(=O)c1nn(Cc2nc3cc(Cl)ccc3n2C2CCNCC2)c2ccccc12` [Example 2-15, 1-{[5-Chloro-1-(piperidin-4-yl)-1H-benzimidazol-2-yl]methyl}-3-(methylsulfonyl)-1H-indazole] had a half-maximal effective concentration (EC50) of 591 nM. This EC50 is about 77-fold higher than that of the compound before.

Compound `CS(=O)(=O)c1nn(Cc2nc3cc(Cl)ccc3n2CCCO)c2cnccc12` [Example 2-27, 3-(5-Chloro-2-{[3-(methylsulfonyl)-1H-pyrazolo[3,4-c]pyridin-1-yl]methyl}-1H-benzimidazol-1-yl)propan-1-ol] displayed an EC50 of 7.53 nM. With `COc1ccc(-n2c(Cn3nc(S(C)(=O)=O)c4ccccc43)nc3cc(Cl)ccc32)cn1` [Example 3-4, 1-{[5-Chloro-1-(6-methoxypyridin-3-yl)-1H-benzimidazol-2-yl]methyl}-3-(methylsulfonyl)-1H-indazole] the figure was 33.5 nM.

In turn, `CS(=O)(=O)c1nn(Cc2nc3cc(Cl)ccc3n2C2CC3(COC3)C2)c2cnccc12` [Example 2-24, 1-{[5-Chloro-1-(2-oxaspiro[3.3]hept-6-yl)-1H-benzimidazol-2-yl]methyl}-3-(methylsulfonyl)-1H-pyrazolo[3,4-c]pyridine] returned an EC50 of 8.66 nM. In turn, `CS(=O)(=O)c1nn(Cc2nc3cc(Cl)ccc3n2CCC2(O)CC2)c2cnccc12` [Example 2-34, 1-[2-(5-Chloro-2-{[3-(methylsulfonyl)-1H-pyrazolo[3,4-c]pyridin-1-yl]methyl}-1H-benzimidazol-1-yl)ethyl]cyclopropanol] registered an EC50 of 8.7 nM. The EC50 values of the last two compounds are within 1.5-fold of each other. `CS(=O)(=O)c1nn(Cc2nc3cc(Cl)ccc3n2-c2ccc(Cl)nc2)c2ccccc12` [Example 3-5, 1-{[5-Chloro-1-(6-chloropyridin-3-yl)-1H-benzimidazol-2-yl]methyl}-3-(methylsulfonyl)-1H-indazole] came in with an EC50 of 18.1 nM. In turn, `CS(=O)(=O)c1nn(Cc2nc3cc(Cl)ccc3n2C2CCS(=O)(=O)C2)c2ccccc12` (centres unmarked) [Example 2-2, 1-{[5-Chloro-1-(1,1-dioxidotetrahydrothiophen-3-yl)-1H-benzimidazol-2-yl]methyl}-3-(methylsulfonyl)-1H-indazole] returned an EC50 of 7.86 nM. Compound `CS(=O)(=O)c1nn(Cc2nc3cc(Cl)ccc3n2C2CCC(F)(F)C2)c2cnccc12` (centres unmarked) [Example 2-10, 1-{[5-Chloro-1-(3,3-difluorocyclopentyl)-1H-benzimidazol-2-yl]methyl}-3-(methylsulfonyl)-1H-pyrazolo[3,4-c]pyridine] came in with an EC50 of 14.3 nM. Regarding `CC(C)C(=O)N1CC[C@@H](n2c(Cn3nc(S(C)(=O)=O)c4ccncc43)nc3cc(Cl)ccc32)C1` [Example 6-4, 1-[(3R)-3-(5-Chloro-2-{[3-(methylsulfonyl)-1H-pyrazolo[3,4-c]pyridin-1-yl]methyl}-1H-benzimidazol-1-yl)pyrrolidin-1-yl]-2-methylpropan-1-one], the EC50 was determined as 4 nM. With `CS(=O)(=O)c1nn(Cc2nc3cc(Cl)ccc3n2C2CNC2)c2cnccc12` [Example 2-14, 1-{[1-(Azetidin-3-yl)-5-chloro-1H-benzimidazol-2-yl]methyl}-3-(methylsulfonyl)-1H-pyrazolo[3,4-c]pyridine], a half-maximal response (EC50) required 708 nM. Compared with the last compound, the EC50 is about 180-fold higher. Next, `CC(=O)N1CC[C@@H](n2c(Cn3nc(S(C)(=O)=O)c4ccncc43)nc3cc(Cl)ccc32)C1` [Example 6-1, 1-[(3R)-3-(5-Chloro-2-{[3-(methylsulfonyl)-1H-pyrazolo[3,4-c]pyridin-1-yl]methyl}-1H-benzimidazol-1-yl)pyrrolidin-1-yl]ethanone]: 7 nM. As to `CS(=O)(=O)c1nn(Cc2nc3cc(Cl)ccc3n2-c2ccc(F)nc2)c2ccccc12` [Example 3-1, 1-{[5-Chloro-1-(6-fluoropyridin-3-yl)-1H-benzimidazol-2-yl]methyl}-3-(methylsulfonyl)-1H-indazole], a half-maximal response (EC50) required 9.86 nM.

`CC(C)S(=O)(=O)c1nn(Cc2nc3cc(Cl)ccc3n2CCS(C)(=O)=O)c2ccccc12` [Example 1-13, 1-({5-Chloro-1-[2-(methylsulfonyl)ethyl]-1H-benzimidazol-2-yl}methyl)-3-(propan-2-ylsulfonyl)-1H-indazole]: the EC50 worked out at 312 nM. Consider `CS(=O)(=O)c1nn(Cc2nc3cc(Cl)ccc3n2C2COC2)c2ccccc12` [Example 2-3, 1-{[5-Chloro-1-(oxetan-3-yl)-1H-benzimidazol-2-yl]methyl}-3-(methylsulfonyl)-1H-indazole], for which the EC50 was 21.8 nM. Regarding `CS(=O)(=O)c1nn(Cc2nc3cc(Cl)ccc3n2C2COC2)c2cnccc12` [Example 2-5, 1-{[5-Chloro-1-(oxetan-3-yl)-1H-benzimidazol-2-yl]methyl}-3-(methylsulfonyl)-1H-pyrazolo[3,4-c]pyridine], the EC50 turned out to be 22.4 nM. Compound `CS(=O)(=O)CCCn1c(Cn2cc(S(C)(=O)=O)c3cc(F)ccc32)nc2cc(Cl)ccc21` [Example 1-3, 5-Chloro-2-{[5-fluoro-3-(methylsulfonyl)-1H-indol-1-yl]methyl}-1-[3-(methylsulfonyl)propyl]-1H-benzimidazole] returned an EC50 of 197 nM. `CS(=O)(=O)c1nn(Cc2nc3cc(Cl)ccc3n2C2CCS(=O)(=O)C2)c2cnccc12` (stereo in doubt) [Example 2-1, 1-({5-Chloro-1-[(3R)-1,1-dioxidotetrahydrothiophen-3-yl]-1H-benzimidazol-2-yl}methyl)-3-(methylsulfonyl)-1H-pyrazolo[3,4-c]pyridine] registered an EC50 of 8.99 nM.

Regarding `CS(=O)(=O)c1nn(Cc2nc3cc(Cl)ccc3n2C2CCOC2)c2cnccc12` (centres unmarked) [Example 2-28, 1-{[5-Chloro-1-(tetrahydrofuran-3-yl)-1H-benzimidazol-2-yl]methyl}-3-(methylsulfonyl)-1H-pyrazolo[3,4-c]pyridine], the EC50 was 7.57 nM. Compound `[2H]C([2H])(O)CCn1c(Cn2nc(S(C)(=O)=O)c3ccncc32)nc2cc(Cl)ccc21` [Example 13, 3-(5-chloro-2-{[3-(methylsulfonyl)-1H-pyrazolo[3,4-c]pyridin-1-yl]methyl}-1H-benzimidazol-1-yl)(1,1-^2H2)propan-1-ol] gave an EC50 of 3 nM. This EC50 lies about 2.5-fold lower than the previous one. Next, `CS(=O)(=O)CCCn1c(Cn2cc(S(C)(=O)=O)c3ccncc32)nc2cc(Cl)ccc21` [Example 1-4, 5-Chloro-1-[3-(methylsulfonyl)propyl]-2-{[3-(methylsulfonyl)-1H-pyrrolo[2,3-c]pyridin-1-yl]methyl}-1H-benzimidazole]: 82 nM; `CS(=O)(=O)c1nn(Cc2nc3cc(Cl)ccc3n2CCCC(F)(F)F)c2ccccc12` [Example 4-1, 1-{[5-Chloro-1-(4,4,4-trifluorobutyl)-1H-benzimidazol-2-yl]methyl}-3-(methylsulfonyl)-1H-indazole]: 14.6 nM. With `CS(=O)(=O)c1nn(Cc2nc3cc(Cl)ccc3n2[C@H]2C[C@](C)(O)C2)c2cnccc12` [Example 2-26, trans-3-(5-Chloro-2-{[3-(methylsulfonyl)-1H-pyrazolo[3,4-c]pyridin-1-yl]methyl}-1H-benzimidazol-1-yl)-1-methylcyclobutanol] the figure was 7 nM. In the case of `CS(=O)(=O)c1nn(Cc2nc3cc(Cl)ccc3n2[C@H]2C[C@H](O)C2)c2cnccc12` [Example 2-32, trans-3-(5-Chloro-2-{[3-(methylsulfonyl)-1H-pyrazolo[3,4-c]pyridin-1-yl]methyl}-1H-benzimidazol-1-yl)cyclobutanol], the midpoint of the response, the EC50, lay at 3.32 nM. This EC50 is about 2.1-fold lower than that of the compound before.

Compound `CCS(=O)(=O)c1cn(Cc2nc3cc(Cl)ccc3n2CCCS(C)(=O)=O)c2ccccc12` [Example 1-5, 5-Chloro-2-{[3-(ethylsulfonyl)-1H-indol-1-yl]methyl}-1-[3-(methylsulfonyl)propyl]-1H-benzimidazole] returned an EC50 of 65 nM.

As to `CS(=O)(=O)c1nn(Cc2nc3cc(Cl)ccc3n2C2CCN(C(=O)CN)C2)c2cnccc12` (centres unmarked) [Example 2-18, 2-Amino-1-[3-(5-chloro-2-{[3-(methylsulfonyl)-1H-pyrazolo[3,4-c]pyridin-1-yl]methyl}-1H-benzimidazol-1-yl)pyrrolidin-1-yl]ethanone], the EC50 amounted to 36 nM. This EC50 lies about 1.8-fold lower than the previous one.
